Values after ≈ are worked out from the molar mass of the structure shown. Counter-ions that a name gives are not always drawn.
Legend:
S. aureus = test: Measurement of Minimal Growth Inhibitory Concentration (MIC), agar plate dilution, S. aureus; assay type: cell-based; settings: Staphylococcus aureus, 10^6 CFU/ml, 37° C., 18 hours, read-out: MIC (1)
Procedure: (§1) 1. Measurement of Minimal Growth Inhibitory Concentration (MIC)
(§2) MIC was measured by agar plate dilution assay method in accordance with the standard by Japan Chemical Therapeutics Association (refer to Journal of Japan Chemical Therapeutics Association, 29 (1), 76 to 79 (1981).
(§3) Briefly, a bacteria suspension as incubated in a bouillon medium for measurement of sensitivity, at 37° C. for 18 hours was diluted to 10^6 CFU/ml with the same medium. This was inoculated on an agar medium for measurement of sensitivity, which contained a compound to be tested, with a microplanter and incubated at 37° C. for 18 hours and then the MIC was measured. Enoxacin was used as a control.

P. aeruginosa E-2 [1] = test: Remedial Effect against Mouse Infectious Diseases, P. aeruginosa E-2; assay type: in vivo, ddy male mice infected with P. aeruginosa E-2; design: key: -: ineffective; +: somewhat poorer than enoxacin; ++: comparable to enoxacin; +++: extremely effective; settings: P. aeruginosa E-2, 7.5×10^4 CFU/mouse; single oral dose 2 h after inoculation; survival after one week, compared with enoxacin
Procedure: (§4) 2. Remedial Effect against Mouse Infectious Diseases:
(§5) E. coli KC-14 and P. aeruginosa E-2 each were suspended in 4% mucin, and 0.25 ml of each of the resulting suspensions was inoculated into the abdominal cavity of ddy male mice (weight: about 20 g, 4-week age, 10 mice for one group). The amount of the bacteria inoculated was 5.1×10^4 CFU/mouse for E. coli KC-14 and 7.5×10^4 CFU/mouse for P. aeruginosa E-2. Two hours after the inoculation of the bacteria, the compound to be tested was orally administered once, and the number of the animals living after one week was counted. The results obtained were compared with those using the control enoxacin.

P. aeruginosa E-2 [2] = test: Measurement of Minimal Growth Inhibitory Concentration (MIC), agar plate dilution, P. aeruginosa; assay type: cell-based; settings: Pseudomonas aeruginosa, E2, 10^6 CFU/ml, 37° C., 18 hours, read-out: MIC (3)
Procedure: as §1, §2, §3

E. coli KC-14 = test: Remedial Effect against Mouse Infectious Diseases, E. coli KC-14; assay type: in vivo, ddy male mice infected with E. coli KC-14; design: key: -: ineffective; +: somewhat poorer than enoxacin; ++: comparable to enoxacin; +++: extremely effective; settings: E. coli KC-14, 5.1×10^4 CFU/mouse; single oral dose 2 h after inoculation; survival after one week, compared with enoxacin
Procedure: as §4, §5

E. coli = test: Measurement of Minimal Growth Inhibitory Concentration (MIC), agar plate dilution, E. coli; assay type: cell-based; settings: Escherichia coli, 10^6 CFU/ml, 37° C., 18 hours, read-out: MIC (2)
Procedure: as §1, §2, §3

**Q.** Which MIC (S. aureus) does the source give for `CC1Sc2c(C(=O)O)c(=O)c3cnc(N4CCN(C)CC4)nc3n21` (centres unmarked) [Example 7, 1-Methyl-7-(4-methyl-1-piperazinyl)-4-oxo-4H[1,3]thiazeto[3',2'-1,2]pyrido[2,3-d]pyrimidine-3-carboxylic Acid] here?
**A.** Its MIC is 1.56 µg/mL (≈ 4.49 µM).

**Q.** What about the “Remedial Effect (3)” value (P. aeruginosa E-2 [1]) of the same molecule?
**A.** Its value is “-”.

**Q.** And the MIC (P. aeruginosa E-2 [2])?
**A.** Its MIC is 1.56 µg/mL (≈ 4.49 µM).

**Q.** And the “Remedial Effect (2)” value (E. coli KC-14)?
**A.** The value was “++”.

**Q.** And the MIC (E. coli)?
**A.** The MIC was 0.1 µg/mL (≈ 0.288 µM).

**Q.** `O=C(O)c1c2n(c3nc(N4CCNCC4)c(F)cc3c1=O)CS2` [Example 2, 6-Fluoro-7-(1-piperazinyl)-4-oxo-4H[1,3]-thiazeto[3,2-a]-1,8-naphthyridine-3-carboxylic Acid Hydrochloride] was tested. Which MIC (S. aureus) did it give?
**A.** Its MIC is 0.39 µg/mL.

**Q.** What about the “Remedial Effect (3)” value (P. aeruginosa E-2 [1]) of the same molecule?
**A.** Its value is “+”.

**Q.** What about the MIC (P. aeruginosa E-2 [2]) of the same molecule?
**A.** Its MIC is 0.39 µg/mL.

**Q.** What about the “Remedial Effect (2)” value (E. coli KC-14) of the same molecule?
**A.** Its value is “+”.

**Q.** And the MIC (E. coli)?
**A.** Its MIC is 0.05 µg/mL.

**Q.** With `O=C(O)c1c2n(c3nc(N4CCNCC4)c(F)cc3c1=O)C(c1ccccc1)S2` (centres unmarked) [Example 34, 6-Fluoro-1-phenyl-7-piperazinyl-4-oxo-4H[1,3]thiazeto[3,2-a]-1,8-naphthylidine-3-carboxylic acid hydrochloride] as the molecule, how does the MIC (S. aureus) read?
**A.** Its MIC is 0.39 µg/mL.

**Q.** What about the MIC (P. aeruginosa E-2 [2]) of the same molecule?
**A.** Its MIC is 0.39 µg/mL.

**Q.** What about the MIC (E. coli) of the same molecule?
**A.** Its MIC is 0.1 µg/mL.

**Q.** Which results are given for `CC1Sc2c(C(=O)O)c(=O)c3cc(F)c(N4CCOCC4)nc3n21` (centres unmarked) [Example 18, 6-Fluoro-1-methyl-7-morpholino-4-oxo-4H[1,3]thiazeto[3,2-a]-1,8-naphthyridine-3-carboxylic Acid]?
**A.** MIC (S. aureus): 0.1 µg/mL (≈ 0.285 µM); Remedial Effect (3) (P. aeruginosa E-2 [1]): -; MIC (P. aeruginosa E-2 [2]): 0.78 µg/mL (≈ 2.22 µM); Remedial Effect (2) (E. coli KC-14): +; MIC (E. coli): 0.05 µg/mL (≈ 0.142 µM)

**Q.** With `CC1Sc2c(C(=O)O)c(=O)c3cc(F)c(N4CCN(C)CC4)nc3n21` (centres unmarked) [Example 14, 6-Fluoro-1-methyl-7-(4-methyl-1-piperazinyl)-4-oxo-4H[1,3]thiazeto[3,2-a]-1,8-naphthyridine-3-carboxylic Acid] as the molecule, how does the MIC (S. aureus) read?
**A.** The MIC was 0.1 µg/mL (≈ 0.274 µM).

**Q.** And the “Remedial Effect (3)” value (P. aeruginosa E-2 [1])?
**A.** The value was “+++”.

**Q.** What about the MIC (P. aeruginosa E-2 [2]) of the same molecule?
**A.** Its MIC is 0.2 µg/mL (≈ 0.549 µM).

**Q.** What about the “Remedial Effect (2)” value (E. coli KC-14) of the same molecule?
**A.** Its value is “+++”.

**Q.** And the MIC (E. coli)?
**A.** The MIC was 0.0125 µg/mL (≈ 0.0343 µM).

**Q.** Which results are given for `CCn1cc(C(=O)O)c(=O)c2cc(F)c(N3CCNCC3)nc21` [Enoxacin, enoxacin, reference compound]?
**A.** MIC (S. aureus): 0.78 µg/mL (≈ 2.44 µM); Remedial Effect (3) (P. aeruginosa E-2 [1]): ++; MIC (P. aeruginosa E-2 [2]): 0.78 µg/mL (≈ 2.44 µM); Remedial Effect (2) (E. coli KC-14): ++; MIC (E. coli): 0.2 µg/mL (≈ 0.624 µM)

**Q.** Which MIC (S. aureus) does the source give for `CN1CCN(c2nc3c(cc2F)c(=O)c(C(=O)O)c2n3CS2)CC1` [Example 3, 6-Fluoro-7-(4-methyl-1-piperazinyl)-4-oxo-4H[1,3]-thiazeto[3,2-a]-1,8-naphthyridine-3-carboxylic Acid Hydrochloride] here?
**A.** The MIC was 0.39 µg/mL.

**Q.** What about the “Remedial Effect (3)” value (P. aeruginosa E-2 [1]) of the same molecule?
**A.** The value was “+++”.

**Q.** And the MIC (P. aeruginosa E-2 [2])?
**A.** Its MIC is 0.39 µg/mL.

**Q.** What about the “Remedial Effect (2)” value (E. coli KC-14) of the same molecule?
**A.** Its value is “+++”.

**Q.** And the MIC (E. coli)?
**A.** Its MIC is 0.025 µg/mL.

**Q.** Which results are given for `O=C(O)c1c2n(c3nc(N4CCNCC4)c(F)cc3c1=O)C(c1ccc(F)cc1)S2` (centres unmarked) [Example 35, 6-fluoro-1-(4-fluorophenyl)-7-piperazinyl-4-oxo-4H(1,3)thiazeto(3,2-a)-1,8-naphthylidine-3-carboxylic acid]?
**A.** MIC (S. aureus): 0.39 µg/mL (≈ 0.906 µM); MIC (P. aeruginosa E-2 [2]): 0.39 µg/mL (≈ 0.906 µM); MIC (E. coli): 0.1 µg/mL (≈ 0.232 µM)

**Q.** Which MIC (S. aureus) does the source give for `CC1Sc2c(C(=O)O)c(=O)c3cc(Cl)c(N4CCNCC4)nc3n21` (centres unmarked) [Example 21, 6-Chloro-1-methyl-4-oxo-7-(1-piperazinyl)-4H[1,3]thiazeto[3,2-a]-1,8-naphthyridine-3-carboxylic Acid Hydrochloride] here?
**A.** Its MIC is 0.39 µg/mL.

**Q.** What about the “Remedial Effect (3)” value (P. aeruginosa E-2 [1]) of the same molecule?
**A.** Its value is “+”.

**Q.** What about the MIC (P. aeruginosa E-2 [2]) of the same molecule?
**A.** Its MIC is 0.78 µg/mL.

**Q.** What about the “Remedial Effect (2)” value (E. coli KC-14) of the same molecule?
**A.** Its value is “+”.

**Q.** What about the MIC (E. coli) of the same molecule?
**A.** The MIC was 0.025 µg/mL.

**Q.** With `CC1Sc2c(C(=O)O)c(=O)c3cc(F)c(N4CCNCC4)nc3n21` (centres unmarked) [Example 12, 6-Fluoro-1-methyl-4-oxo-7-(1-piperazinyl)-4H[1,3]thiazeto[3,2-a]-1,8-naphthyridine-3-carboxylic Acid Hydrochloride] as the molecule, how does the MIC (S. aureus) read?
**A.** Its MIC is 0.1 µg/mL.

**Q.** What about the “Remedial Effect (3)” value (P. aeruginosa E-2 [1]) of the same molecule?
**A.** Its value is “+++”.

**Q.** And the MIC (P. aeruginosa E-2 [2])?
**A.** The MIC was 0.1 µg/mL.

**Q.** What about the “Remedial Effect (2)” value (E. coli KC-14) of the same molecule?
**A.** The value was “+++”.

**Q.** And the MIC (E. coli)?
**A.** Its MIC is 0.0125 µg/mL.

**Q.** With `O=C(O)c1c2n(c3nc(N4CCNCC4)c(Cl)cc3c1=O)CS2` [Example 20, 6-Chloro-4-oxo-7-(1-piperazinyl)-4H[1,3]thiazeto[3,2-a]-1,8-naphthyridine-3-carboxylic Acid Hydrochloride] as the molecule, how does the MIC (S. aureus) read?
**A.** Its MIC is 0.78 µg/mL.

**Q.** What about the “Remedial Effect (3)” value (P. aeruginosa E-2 [1]) of the same molecule?
**A.** Its value is “-”.

**Q.** And the MIC (P. aeruginosa E-2 [2])?
**A.** Its MIC is 0.78 µg/mL.

**Q.** And the “Remedial Effect (2)” value (E. coli KC-14)?
**A.** The value was “+”.

**Q.** And the MIC (E. coli)?
**A.** The MIC was 0.05 µg/mL.

**Q.** What does the source list for `CC1Sc2c(C(=O)O)c(=O)c3cc(Cl)c(N4CCN(C)CC4)nc3n21` (centres unmarked) [Example 25, 6-Chloro-1-methyl-7-(4-methyl-1-piperazinyl)-4-oxo-4H[1,3]thiazeto[3,2-a]-1,8-naphthyridine-3-carboxylic Acid Ethanesulfonate]?
**A.** MIC (S. aureus): 0.39 µg/mL; Remedial Effect (3) (P. aeruginosa E-2 [1]): -; MIC (P. aeruginosa E-2 [2]): 0.78 µg/mL; Remedial Effect (2) (E. coli KC-14): +; MIC (E. coli): 0.025 µg/mL

Source: patent US4882328A, “Thiazetidine derivatives” (Nippon Shinyaku Co. Ltd., priority 1987, dated 1989)
